From ChEMBL document CHEMBL1201862, “PubChem BioAssay data set” (2004)
Activity calls are given as the source filed them.

Assays:
[1] = target: DNA dC->dU-editing enzyme APOBEC-3A (Homo sapiens, UniProt P31941); experiment: APOBEC3A DNA deaminase inhibitors, dose response, biochemical (AID 504722); assay type: functional
[2] = target: DNA dC->dU-editing enzyme APOBEC-3G (Homo sapiens, UniProt Q9HC16); experiment: Dose Response confirmation of small molecule APOBEC3G DNA Deaminase Inhibitors via a fluorescence-based single-stranded DNA deaminase assay. [Related pubchem assays (depositor defined):AID493012, AID493028]; assay type: functional
DNA dC->dU-editing enzyme APOBEC-3G, sequence (Q9HC16 whole entry): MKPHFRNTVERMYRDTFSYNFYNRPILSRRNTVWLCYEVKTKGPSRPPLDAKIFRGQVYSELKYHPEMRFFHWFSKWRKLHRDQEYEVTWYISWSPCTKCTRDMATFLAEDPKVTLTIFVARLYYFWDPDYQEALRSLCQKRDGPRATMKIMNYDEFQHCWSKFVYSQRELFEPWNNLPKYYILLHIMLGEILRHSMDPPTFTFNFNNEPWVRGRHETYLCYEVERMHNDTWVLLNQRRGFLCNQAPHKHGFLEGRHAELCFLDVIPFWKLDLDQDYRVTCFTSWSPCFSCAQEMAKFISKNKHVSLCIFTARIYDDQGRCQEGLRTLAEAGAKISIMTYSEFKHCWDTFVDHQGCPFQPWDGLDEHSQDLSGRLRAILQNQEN

[3] = human group III sPLA2 inhibitors, dose response, biochemical, QFRET, IC50 (AID 743457);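 also: green fluorescence rise as the enzyme cleaves BODIPY PC-A2 in liposomes; potency for inhibition of the enzyme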
[4] = target: Glutathione-S-transferase (Schistosoma japonicum, UniProt Q26513); experiment: biotin-GST/anti-GST TR-FRET signal inhibitors, dose response, artefact control for Vif-APOBEC3G degradation inhibitor project, biochemical (AID 1117362); assay type: functional
Glutathione-S-transferase, sequence (Q26513 whole entry): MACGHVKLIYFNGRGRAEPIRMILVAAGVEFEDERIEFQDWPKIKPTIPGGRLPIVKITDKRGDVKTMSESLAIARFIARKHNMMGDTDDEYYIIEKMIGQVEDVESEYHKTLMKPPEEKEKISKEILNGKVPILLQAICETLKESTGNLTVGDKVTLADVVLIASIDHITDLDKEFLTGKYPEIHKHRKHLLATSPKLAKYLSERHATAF

[5] = inhibitors of Vif binding to APOBEC3G peptide, primary screen, biochemical, TR-FRET, GST-Vif 1-94, biotin-A3G peptide, dose response retest (AID 1117319); assay type: functional;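 also: TR-FRET signal of purified GST-Vif binding a biotinylated A3G peptide; inhibitors lower the FRET signal by blocking Vif and A3G binding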
Paired box protein Pax-8 = Paired box protein Pax-8 (Homo sapiens, UniProt Q06710); experiment: inhibitors of PAX8-driven TPO luciferase reporter, dose response, RMG-I cells, cherry-pick (AID 687027); assay type: functional, cell-based;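 also: luciferase reporter driven by Pax8 target thyroperoxidase promoter measured by SteadyGlo luminescence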
Paired box protein Pax-8, sequence (Q06710 whole entry): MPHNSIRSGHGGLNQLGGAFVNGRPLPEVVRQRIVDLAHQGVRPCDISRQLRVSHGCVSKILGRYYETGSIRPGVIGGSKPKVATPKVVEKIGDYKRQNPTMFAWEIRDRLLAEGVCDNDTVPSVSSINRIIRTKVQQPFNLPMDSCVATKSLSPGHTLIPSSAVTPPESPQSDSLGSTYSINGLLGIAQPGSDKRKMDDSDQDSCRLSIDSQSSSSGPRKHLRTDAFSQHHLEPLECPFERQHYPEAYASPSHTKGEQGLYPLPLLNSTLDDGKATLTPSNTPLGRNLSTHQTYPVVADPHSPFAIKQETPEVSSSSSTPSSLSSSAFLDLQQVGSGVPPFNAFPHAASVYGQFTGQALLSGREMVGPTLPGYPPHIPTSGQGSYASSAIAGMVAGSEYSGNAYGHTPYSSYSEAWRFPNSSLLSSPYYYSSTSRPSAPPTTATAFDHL

[6] = NIH:OVCAR-3 ovarian cancer cell cytotoxicity, dose response, PAX8 inhibitor project, plate reader, dry powder samples (AID 743044); assay type: functional, cell-based
[7] = non-specific cell cytotoxicity, dose response, cytotoxicity control for PAX8 inhibitor project, plate reader, dry powder samples (AID 743021); assay type: functional, cell-based
[8] = cytotoxicity in OVCAR8 ovarian cancer cells, dose response, PAX8 project, cell-based, plate reader, dry powder samples (AID 743197); assay type: functional; conditions: OVCAR-8
[9] = P. falciparum Dd2 blood-stage growth inhibition, dose response, SYBR Green fluorescence, erythrocytes, dry powder, set 2 (AID 1159574); assay type: functional, cell-based
[10] = Concentration-dependent survival of SW480 colon cancer line, luminescence detection with CellTiter-Glo, half-maximal inhibitory concentration (AID 1117338); assay type: functional
[11] = RKO cell viability reduction, dose response, CellTiter-Glo luminescence (AID 1117322); assay type: functional
[12] = cytotoxicity toward HCT116 cells – cell-based, CellTiter-Glo luminescence, IC50, dose response (AID 1117332); assay type: functional; conditions: HCT-116
[13] = SNU-C1 cell viability reduction, dose response, CellTiter-Glo luminescence (AID 1117323); assay type: functional, cell-based
[14] = cytotoxicity toward Colo320 cells – cell-based, CellTiter-Glo luminescence, IC50, dose response (AID 1117334); assay type: functional; conditions: COLO 320
[15] = cytotoxicity toward HT-29 cells – cell-based, CellTiter-Glo luminescence, IC50, dose response (AID 1117330); assay type: functional
[16] = CellTiter-Glo luminescent dose response of DLD-1 viability loss (AID 1117352); assay type: functional
[17] = HCT116 cell viability decrease, GSK3B pretreatment – CellTiter-Glo, IC50, dose response (AID 1117339); assay type: functional; conditions: HCT-116
[18] = HeLa 2N DNA content increase, dose response, cell-based, IC50 (AID 1117349); assay type: functional
[19] = HeLa 4N DNA content increase, dose response, cell-based, IC50 (AID 1117351); assay type: functional
[20] = inhibitors of HIV Env-driven cell fusion, dose response, cherry-pick (AID 652057); assay type: functional, cell-based
[21] = inhibitors of clade B AD8 Env fusion, dose response, cell-based, cherry-pick (AID 652062); assay type: functional;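 also: luciferase signal from cell-cell fusion driven by HIV-1 clade B AD8 Env; potency is for inhibitors of fusion seen as a drop in luminescence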
[22] = PAX2 cell-based inhibition, dose response, selectivity assay for PAX8 inhibitor project, plate reader, dry powder samples (AID 743048); assay type: functional;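 also: HEK293 cells carrying a WT1 promoter luciferase reporter driven by expressed Pax2; potency is for inhibition of Pax2 driven reporter signal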
[23] = PAX5 activity inhibitors, dose response, selectivity assay for PAX8 inhibitor project, cell-based, plate reader, dry powder samples (AID 743047); assay type: functional;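 also: HEK293 cells carrying a Pax5 driven CD19 promoter luciferase reporter; potency of inhibitors that lower reporter luminescence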
[24] = cytotoxicity in OVCAR4 cells, dose response, cytotoxicity control for PAX8 inhibitor project, cell-based, plate reader, dry powder, SA11 (AID 743150); assay type: functional; conditions: OVCAR-4
[25] = cytotoxicity in COV434 cells, dose response, cytotoxicity control for PAX8 inhibitor project, cell-based, plate reader, dry powder, SA7 (AID 743145); assay type: functional
[26] = cytotoxicity in OV-90 ovarian cancer cells, dose response, PAX8 inhibitor project, cell-based, plate reader, dry powder, SA8 (AID 743149); assay type: functional
[27] = cytotoxicity dependent on PAX8, dose response, cell-based, plate reader, dry powder (AID 743049); assay type: functional
[28] = Luminescent dose response cell-based high throughput screening assay for inhibitors of the Janus kinase 2 mutant JAK2V617F. [Related pubchem assays: 1446 (Primary screen.), 1521 (Confirmation assay.), 1486 (Counter screen.)]; assay type: functional
[29] = growth suppression of PTEN-null colon cells, dose response, cell-based, HCT116 PTEN knockout (AID 1047); assay type: functional;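 also: HCT116 colon tumor cells with PTEN knocked out; cells exposed to compound for 60 hours before readout; potency for loss of cell viability measured by luminescence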
[30] = growth suppression of beta-catenin-knockout colon cells, dose response, cell-based, HCT116, human colon tumor (AID 1045); assay type: functional;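 also: HCT116 colon tumor cells with beta catenin knocked out; cells exposed to compound for 60 hours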
[31] = Intein inhibitors as potential Tuberculosis drugs, a cytotoxicity screen. [Related pubchem assays (depositor defined):AID2221, AID2223, AID434968, AID435010, AID449749, AID449750, AID489010]; assay type: functional
[32] = target: T1, Replicative DNA helicase DnaB (Mycobacterium tuberculosis, UniProt P9WMR3); experiment: DnaB intein splicing inhibitors, dose response, biochemical, cell-free fluorescence (AID 449749); assay type: functional
T1 sequence (P9WMR3 whole entry): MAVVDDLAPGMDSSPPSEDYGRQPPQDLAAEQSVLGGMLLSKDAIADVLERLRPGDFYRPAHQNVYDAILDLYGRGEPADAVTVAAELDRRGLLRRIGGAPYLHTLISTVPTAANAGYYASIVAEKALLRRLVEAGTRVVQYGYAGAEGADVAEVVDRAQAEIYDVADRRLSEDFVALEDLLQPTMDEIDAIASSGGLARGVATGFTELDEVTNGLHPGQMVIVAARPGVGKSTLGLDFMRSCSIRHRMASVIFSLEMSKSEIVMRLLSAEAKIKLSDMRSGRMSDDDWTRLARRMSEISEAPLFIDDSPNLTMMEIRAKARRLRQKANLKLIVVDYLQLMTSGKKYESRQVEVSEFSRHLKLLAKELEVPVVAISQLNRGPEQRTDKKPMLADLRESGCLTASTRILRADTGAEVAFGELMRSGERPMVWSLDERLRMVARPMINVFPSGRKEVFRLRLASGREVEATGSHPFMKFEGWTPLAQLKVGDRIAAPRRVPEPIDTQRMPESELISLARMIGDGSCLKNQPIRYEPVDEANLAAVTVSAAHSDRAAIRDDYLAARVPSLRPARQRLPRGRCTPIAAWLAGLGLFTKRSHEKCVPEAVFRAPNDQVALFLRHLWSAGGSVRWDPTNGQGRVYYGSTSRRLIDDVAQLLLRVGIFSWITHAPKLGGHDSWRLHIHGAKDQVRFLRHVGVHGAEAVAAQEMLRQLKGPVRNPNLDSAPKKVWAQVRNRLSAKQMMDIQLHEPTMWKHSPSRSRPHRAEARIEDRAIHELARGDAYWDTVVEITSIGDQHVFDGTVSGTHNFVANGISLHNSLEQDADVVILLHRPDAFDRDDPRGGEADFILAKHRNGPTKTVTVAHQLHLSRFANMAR

BJ = experiment: cytotoxicity toward Ras-transformed BJeLR fibroblasts, dose response, cell-based, alamar blue fluorescence, cherrypicked samples (AID 2631); assay type: functional; conditions: Homo sapiens;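 also: confirmatory dose-response assay in RAS-dependent BJ fibroblasts engineered with TERT, LT and ST, with cytotoxicity read by fluorescence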
Protein RecA = target: T2, Protein RecA (Mycobacterium tuberculosis, UniProt P9WHJ3); experiment: Fluorescence Cell-Free Homogeneous Dose Retest to Identify Inhibitors of RecA-Intein Splicing Activity. [Related pubchem assays (depositor defined):AID2097, AID2223, AID489010, AID492950]; assay type: functional
T2 sequence (P9WHJ3 whole entry): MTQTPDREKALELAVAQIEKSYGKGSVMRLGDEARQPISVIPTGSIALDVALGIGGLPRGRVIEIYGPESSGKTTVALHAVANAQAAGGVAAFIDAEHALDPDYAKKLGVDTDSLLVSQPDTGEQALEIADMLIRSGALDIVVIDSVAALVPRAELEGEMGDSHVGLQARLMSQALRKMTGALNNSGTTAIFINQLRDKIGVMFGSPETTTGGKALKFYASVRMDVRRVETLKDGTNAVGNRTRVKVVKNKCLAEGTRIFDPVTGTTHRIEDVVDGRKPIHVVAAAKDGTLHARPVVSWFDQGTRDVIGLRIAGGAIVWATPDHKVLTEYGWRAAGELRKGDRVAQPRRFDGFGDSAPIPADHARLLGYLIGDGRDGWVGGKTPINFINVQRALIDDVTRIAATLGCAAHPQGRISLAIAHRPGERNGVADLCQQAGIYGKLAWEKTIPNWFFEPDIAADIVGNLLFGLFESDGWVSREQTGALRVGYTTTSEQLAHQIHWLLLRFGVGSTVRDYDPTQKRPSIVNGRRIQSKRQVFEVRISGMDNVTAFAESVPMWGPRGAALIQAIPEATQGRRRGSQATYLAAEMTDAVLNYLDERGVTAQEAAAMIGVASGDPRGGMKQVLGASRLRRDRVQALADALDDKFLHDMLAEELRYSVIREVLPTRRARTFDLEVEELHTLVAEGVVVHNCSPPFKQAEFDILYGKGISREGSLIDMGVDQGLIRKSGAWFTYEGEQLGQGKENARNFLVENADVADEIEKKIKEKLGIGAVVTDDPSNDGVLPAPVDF
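For CC50 in this document: cells exposed to compound for 72 hours before luminescence readout.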

DNA dC->dU-editing enzyme APOBEC-3A, sequence (P31941 whole entry): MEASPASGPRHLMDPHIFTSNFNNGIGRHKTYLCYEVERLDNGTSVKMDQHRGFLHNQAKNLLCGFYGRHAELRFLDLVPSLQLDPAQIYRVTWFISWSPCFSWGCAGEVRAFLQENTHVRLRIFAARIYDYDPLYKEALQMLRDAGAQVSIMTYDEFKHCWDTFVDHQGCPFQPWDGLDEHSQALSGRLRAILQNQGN

Structure (SMILES): CCn1c(S)nnc1-c1cc2c(C(F)(F)F)nn(C)c2s1
- IC50 [1]: > 100 µM (inactive)
- IC50 [2]: 3.06 µM (active)
- IC50 [3]: > 122 µM (inactive)

Structure (SMILES): O=C(COC(=O)C12CC3CC(CC(Br)(C3)C1)C2)Nc1ccc2[nH]c(O)nc2c1
- IC50 [4]: 73.5 µM (active)
- IC50 [5]: > 100 µM (active)

Structure (SMILES): COc1ccc(NC(=O)N2CCCCN3[C@H](C2)[C@@H](c2ccc(C#Cc4ccccc4)cc2)[C@@H]3CO)cc1
- AC50 (Paired box protein Pax-8): 5.67 µM (active)
- AC50 [6]: 58.4 µM (active)
- AC50 [7]: 29.7 µM (active)
- AC50 [8]: 39.7 µM (active)
- AC50 [9]: 2.1 µM (active)

Structure (SMILES): C[C@H](O)CN(C)C
- IC50 [10]: > 20 µM (inactive)
- IC50 [11]: > 20 µM (inactive)
- IC50 [12]: > 20 µM (inactive)
- IC50 [13]: > 20 µM (inactive)
- IC50 [14]: > 20 µM (inactive)
- IC50 [15]: > 20 µM (inactive)
- IC50 [16]: > 20 µM (inactive)
- IC50 [17]: > 20 µM (inactive)

Structure (SMILES): CCCCCCCCCCCC[N+](C)(C)Cc1ccccc1
- IC50 [18]: > 10 µM (inactive)
- IC50 [10]: 7.95 µM (inactive)
- IC50 [11]: 3.07 µM (active)
- IC50 [12]: 1.96 µM (active)
- IC50 [13]: 0.02 µM (active)
- IC50 [14]: 8.99 µM (inactive)
- IC50 [19]: > 10 µM (inactive)
- IC50 [15]: 0.465 µM (active)
- IC50 [16]: 0.738 µM (active)
- IC50 [17]: > 20 µM (inactive)

Structure (SMILES): N#C[C@@H]1[C@H](c2ccc(-c3ccccc3F)cc2)[C@@H](CO)N1C(=O)Cc1ccccc1
- AC50 [20]: 35 µM (active)
- AC50 (Paired box protein Pax-8): 17.3 µM (active)
- AC50 [21]: 19.8 µM (active)
- AC50 [22]: 23.8 µM (active)
- AC50 [23]: 26.2 µM (active)
- AC50 [24]: 30.4 µM (active)
- AC50 [25]: > 70 µM (inactive)
- AC50 [26]: 56.2 µM (active)
- AC50 [27]: 20.3 µM (active)

Structure (SMILES): NCCNc1ccc(NCCN)c2c1C(=O)c1ccncc1C2=O [PIXANTRONE]
- IC50 [18]: 0.042 µM (active)
- IC50 [19]: 0.0483 µM (active)

Structure (SMILES): COc1cccc(N(C(=O)CCl)C(C(=O)NCCc2ccccc2)c2cccs2)c1 (stereo unspecified)
- IC50 [28]: 0.581 µM (active)
- EC50 [29]: 1.59 µM (active)
- EC50 [30]: 1.48 µM (active)
- CC50 [31]: 0.2 µM (active)
- AC50 [32]: 2.11 µM (active)
- EC50 (BJ): 3.95 µM (active)
- EC50 (Protein RecA): 0.329 µM (active)
